Counter-ions that a name gives are not always drawn.
Molecular target: T1, recombinant guanylate cyclase reporter cell line (Rattus norvegicus, UniProt P19686+P20595)
T1 construct: expressed in transfected cells
T1 sequence (P19686 1-690): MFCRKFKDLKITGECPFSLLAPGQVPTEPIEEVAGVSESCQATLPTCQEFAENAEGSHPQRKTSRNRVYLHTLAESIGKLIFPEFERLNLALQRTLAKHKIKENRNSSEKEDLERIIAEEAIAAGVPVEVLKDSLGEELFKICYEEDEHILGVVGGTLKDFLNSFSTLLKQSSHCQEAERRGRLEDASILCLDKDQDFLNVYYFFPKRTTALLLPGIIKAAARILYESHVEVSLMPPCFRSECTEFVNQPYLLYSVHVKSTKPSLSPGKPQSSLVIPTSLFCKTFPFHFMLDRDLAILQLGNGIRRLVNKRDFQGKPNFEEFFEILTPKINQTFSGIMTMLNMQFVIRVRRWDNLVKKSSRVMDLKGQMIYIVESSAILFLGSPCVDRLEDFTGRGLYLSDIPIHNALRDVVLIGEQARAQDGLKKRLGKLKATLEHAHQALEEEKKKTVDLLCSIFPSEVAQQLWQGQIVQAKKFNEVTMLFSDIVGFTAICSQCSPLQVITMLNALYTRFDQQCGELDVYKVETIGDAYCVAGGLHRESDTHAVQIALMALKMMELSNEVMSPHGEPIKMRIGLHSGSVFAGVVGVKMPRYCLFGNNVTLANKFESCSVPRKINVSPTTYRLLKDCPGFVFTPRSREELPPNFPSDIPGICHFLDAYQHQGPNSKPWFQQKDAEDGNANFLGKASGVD
T1 sequence (P20595 1-619): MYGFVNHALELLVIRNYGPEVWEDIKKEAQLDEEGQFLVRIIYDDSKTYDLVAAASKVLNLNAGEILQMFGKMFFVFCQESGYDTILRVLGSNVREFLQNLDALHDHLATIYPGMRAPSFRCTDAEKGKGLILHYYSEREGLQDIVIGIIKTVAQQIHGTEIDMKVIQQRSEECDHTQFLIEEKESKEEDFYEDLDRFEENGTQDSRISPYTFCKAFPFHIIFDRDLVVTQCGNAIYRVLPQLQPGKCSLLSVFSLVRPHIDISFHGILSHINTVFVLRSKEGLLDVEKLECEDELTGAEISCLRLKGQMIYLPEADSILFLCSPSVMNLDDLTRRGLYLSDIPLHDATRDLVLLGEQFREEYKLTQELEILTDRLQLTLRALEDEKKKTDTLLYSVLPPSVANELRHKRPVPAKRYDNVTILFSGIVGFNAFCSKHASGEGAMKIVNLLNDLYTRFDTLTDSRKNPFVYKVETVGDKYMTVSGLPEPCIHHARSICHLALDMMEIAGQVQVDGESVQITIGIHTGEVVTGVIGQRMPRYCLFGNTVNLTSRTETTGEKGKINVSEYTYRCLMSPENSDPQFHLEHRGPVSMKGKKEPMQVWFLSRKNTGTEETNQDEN
Experiment: Effect on a recombinant guanylate cyclase reporter cell line (B-2)
Assay type: cell-based
Conditions: in some cases mean values for individual determinations
Protocol: B-2. Effect on a Recombinant Guanylate Cyclase Reporter Cell Line
The cellular effect of the inventive compounds is determined using a recombinant guanylate cyclase reporter cell line, as described in F. Wunder et al., Anal. Biochem. 339, 104-112 (2005).
Representative MEC values (MEC=minimum effective concentration) for the inventive compounds are shown in the table below (in some cases as mean values for individual determinations): […]

SMILES	MEC (minimum effective concentration) [µM]
CCC(CO)(CO)NC(=O)c1c(C)nn2c(OCc3c(F)ccc(F)c3F)cc(C)cc12 [Example 28, N-[1-Hydroxy-2-(hydroxymethyl)butan-2-yl]-2,5-dimethyl-7-[(2,3,6-trifluorobenzyl)oxy]pyrazolo[1,5-a]pyridine-3-carboxamide]	1.0
Cc1cc(OCc2c(F)cccc2F)n2nc(C)c(C(=O)NCCN3CCN(C)CC3)c2c1 [Example 93, 7-[(2,6-Difluorobenzyl)oxy]-2,5-dimethyl-N-[2-(4-methylpiperazin-1-yl)ethyl]pyrazolo[1,5-a]pyridine-3-carboxamide]	10
Cc1cc(OCc2c(F)ccc(F)c2F)n2nc(C)c(C(=O)NCC3(O)CC3)c2c1 [Example 25, N-[(1-Hydroxycyclopropyl)methyl]-2,5-dimethyl-7-[(2,3,6-trifluorobenzyl)oxy]pyrazolo[1,5-a]pyridine-3-carboxamide]	0.3
CCCC[C@@H](C)NC(=O)c1c(C)nn2c(OCc3c(F)cccc3F)cc(C)cc12 [Example 94, 7-[(2,6-Difluorobenzyl)oxy]-N-[(2R)-hexan-2-yl]-2,5-dimethylpyrazolo[1,5-a]pyridine-3-carboxamide]	1.0
Cc1cc(OCc2c(F)cccc2F)n2nc(C)c(C(=O)NCC(C)(N)CF)c2c1 (single isomer, unassigned) [Example 41, ent-N-(2-Amino-3-fluoro-2-methylpropyl)-7-[(2,6-difluorobenzyl)oxy]-2,5-dimethylpyrazolo[1,5-a]pyridine-3-carboxamide]	0.3
Cc1cc(OCc2c(F)cccc2F)n2nc(C)c(C(=O)NCC(C)(N)COc3ccc(F)c(F)c3)c2c1 (racemic) [Example 79, rac-N-[2-Amino-3-(3,4-difluorophenoxy)-2-methylpropyl]-7-[(2,6-difluorobenzyl)oxy]-2,5-dimethylpyrazolo[1,5-a]pyridine-3-carboxamide]	3.0
Cc1cc(OCc2c(F)cccc2F)n2nc(C)c(C(=O)NC3(c4ccc(F)c(F)c4)CC3)c2c1 [Example 90, 7-[(2,6-Difluorobenzyl)oxy]-N[1-(3,4-difluorophenyl)cyclopropyl]-2,5-dimethylpyrazolo[1,5-a]pyridine-3-carboxamide]	0.1
CCCc1nn2c(OCc3c(F)cccc3F)cc(C)cc2c1C(=O)NCC(C)(N)CCC (single isomer, unassigned) [Example 51, ent-N-(2-Amino-2-methylpentyl)-7-[(2,6-difluorobenzyl)oxy]-5-methyl-2-propylpyrazolo[1,5-a]pyridine-3-carboxamide]	1.0
Cc1cc(OCc2c(F)ccc(F)c2F)n2nc(C)c(C(=O)NC(CCC(F)(F)C(F)(F)F)C(C)(C)O)c2c1 (single isomer, unassigned; ent-2) [Example 22, ent-2,5-Dimethyl-N-(6,6,7,7,7-pentafluoro-2-hydroxy-2-methylheptan-3-yl)-7-[(2,3,6-trifluorobenzyl)oxy]pyrazolo[1,5-a]pyridine-3-carboxamide]	0.1
Cc1cc(OCc2c(F)cccc2F)n2nc(C)c(C(=O)NCC(C)(C)N)c2c1 [Example 1, N-(2-Amino-2-methylpropyl)-7-[(2,6-difluorobenzyl)oxy]-2,5-dimethylpyrazolo[1,5-a]pyridine-3-carboxamide formate]	2
CCCC(C)(N)CNC(=O)c1cnn2c(OCc3c(F)cccc3F)cc(C)cc12 (single isomer, unassigned) [Example 53, ent-N-(2-Amino-2-methylpentyl)-7-[(2,6-difluorobenzyl)oxy]-5-methylpyrazolo[1,5-a]pyridine-3-carboxamide]	3.0
Cc1cc(OCc2c(F)ccc(F)c2F)n2nc(C)c(C(=O)NCc3ccccc3-c3cccnc3)c2c1 [Example 14, 2,5-Dimethyl-N-[2-(pyridin-3-yl)benzyl]-7-[(2,3,6-trifluorobenzyl)oxy]pyrazolo[1,5-a]pyridine-3-carboxamide]	0.3

The next lines start with the values.

MEC (minimum effective concentration) [µM]	SMILES
10	Cc1cc(OCc2c(F)cccc2F)n2nc(C)c(C(=O)NCC(N)c3cnn(C)c3)c2c1 (racemic) [Example 136, rac-N-[2-Amino-2-(1-methyl-1H-pyrazol-4-yl)ethyl]-7-[(2,6-difluorobenzyl)oxy]-2,5-dimethylpyrazolo[1,5-a]pyridine-3-carboxamide]
3.0	Cc1cc(OCc2c(F)cccc2F)n2nc(C)c(C(=O)NCCCS(=O)(=O)NC3CC3)c2c1 [Example 151, N-[3-(Cyclopropylsulphamoyl)propyl]-7-[(2,6-difluorobenzyl)oxy]-2,5-dimethylpyrazolo[1,5-a]pyridine-3-carboxamide]
1.0	Cc1cc(OCc2c(F)cccc2F)n2nc(C)c(C(=O)NCC(C)(N)C(F)(F)F)c2c1 (racemic) [Example 109, rac-N-(2-Amino-3,3,3-trifluoro-2-methylpropyl)-7-[(2,6-difluorobenzyl)oxy]-2,5-dimethylpyrazolo[1,5-a]pyridine-3-carboxamide]
3.0	Cc1cc(OCc2c(F)cccc2F)n2nc(C)c(C(=O)NC34CCC(C(=O)O)(CC3)CC4)c2c1 [Example 153, 4-[({7-[(2,6-Difluorobenzyl)oxy]-2,5-dimethylpyrazolo[1,5-a]pyridin-3-yl}carbonyl)amino]bicyclo[2.2.2]octane-1-carboxylic Acid]
10	Cc1cc(OCc2c(F)cccc2F)n2nc(C)c(C(=O)NCCC(C)(C)N)c2c1 [Example 121, N-(3-Amino-3-methylbutyl)-7-[(2,6-difluorobenzyl)oxy]-2,5-dimethylpyrazolo[1,5-a]pyridine-3-carboxamide]
1.0	COc1ccc2c(c1)C(NC(=O)c1c(C)nn3c(OCc4c(F)cccc4F)cc(C)cc13)CCN2 (racemic) [Example 102, rac-7-[(2,6-Difluorobenzyl)oxy]-N-(6-methoxy-1,2,3,4-tetrahydroquinolin-4-yl)-2,5-dimethylpyrazolo[1,5-a]pyridine-3-carboxamide]
3.0	CCCC(C)(N)CNC(=O)c1c(C)nn2c(OCc3c(F)cccc3F)cc(C3CC3)cc12 (racemic) [Example 167, rac-N-(2-Amino-2-methylpentyl)-5-cyclopropyl-7-[(2,6-difluorobenzyl)oxy]-2-methylpyrazolo[1,5-a]pyridine-3-carboxamide]
3.0	CCCC(C)(N)CNC(=O)c1c(C)nn2c(OCC3CCCCC3)cc(C)cc12 (racemic) [Example 159, rac-N-(2-Amino-2-methylpentyl)-7-(cyclohexylmethoxy)-2,5-dimethylpyrazolo[1,5-a]pyridine-3-carboxamide]
3.0	Cc1cc(OCc2c(F)cccc2F)n2nc(C)c(C(=O)NCC(N)CC(F)(F)F)c2c1 (racemic) [Example 107, rac-N-(2-Amino-4,4,4-trifluorobutyl)-7-[(2,6-difluorobenzyl)oxy]-2,5-dimethylpyrazolo[1,5-a]pyridine-3-carboxamide]
3.0	Cc1cc(OCc2c(F)cccc2F)n2nc(C)c(C(=O)NN3CCOCC3)c2c1 [Example 135, 7-[(2,6-Difluorobenzyl)oxy]-2,5-dimethyl-N-(morpholin-4-yl)pyrazolo[1,5-a]pyridine-3-carboxamide]
0.3	Cc1cc(OCc2c(F)cccc2F)n2nc(C)c(C(=O)N[C@@H](CO)c3cccs3)c2c1 [Example 176, 7-[(2,6-Difluorobenzyl)oxy]-N-[(1S)-2-hydroxy-1-(2-thienyl)ethyl]-2,5-dimethylpyrazolo[1,5-a]pyridine-3-carboxamide]

Reference: US9422285B2, “Substituted pyrazolo[1,5-A]-pyridine-3-carboxamides and use thereof” (Bayer Pharma Aktiengesellschaft, priority 2014, dated 2016)
